Data reported in patent US20250186627A1, “RADIOLABELED COMPOUNDS TARGETING THE PROSTATE-SPECIFIC MEMBRANE ANTIGEN” (PROVINCIAL HEALTH SERVICES AUTHORITY, priority 2022, published 2025).
*1 amine or outer side, *2 acyl side, *3 side chain or, on linkers, in order; H or OH if unused. Where a SMILES comes first, the peptide text is derived from it. [ ]: non-standard residue; d: D form. The star is where a group is joined. ξ: configuration not given here. ξLys(Nα-CO-ξAad) = O=C(O)CCCC(NC(=O)NC(CCCCN*)C(=O)O)C(=O)O; Butanoyl(4-(4-NO2Ph)) = O=C(CCCc1ccc([N+](=O)[O-])cc1)*; DOTA = O=C(O)CN1CCN(CC(=O)O)CCN(CC(=O)*)CCN(CC(=O)O)CC1; Butanoyl(4-(4-MeO-phenyl)) = COc1ccc(CCCC(=O)*)cc1; ξAla(9-anthryl) = NC(Cc1c2ccccc2cc2ccccc12)C(=O)O; X1 = O=C(C1CCC(CN[*:1])CC1)[*:2]; ξK = NCCCCC(N)C(=O)O

System: NRG-mice bearing LNCaP tumors
Assay: Biodistribution (and PET/SPECT imaging) in NRG-mice bearing LNCaP tumors
Format: in vivo
Conditions: for Biodistribution: Adrenal gland / Biodistribution: Blood / Biodistribution: Bone / Biodistribution: Brain / Biodistribution: Fat / Biodistribution: Heart / Biodistribution: Intestine / Biodistribution: LNCaP tumor / Biodistribution: Liver / Biodistribution: Lungs / Biodistribution: Muscle / Biodistribution: Pancreas / Biodistribution: Salivary gland / Biodistribution: Seminal gland / Biodistribution: Spleen / Biodistribution: Stomach / Biodistribution: Testes / Biodistribution: Thyroid / Biodistribution: Urine / Biodistribution: kidney / Biodistribution: Lacrimal gland: Avg
Summary of the method: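 LNCaP xenografts (~10 million cells, left dorsal flank) grown 4-6 weeks to 200-600 mm^3 in NRG mice. Tail-vein injection of 4-6 MBq ^68Ga or 18.5 MBq ^177Lu tracer under isoflurane; CT then 10-min static PET or 1-h SPECT. Biodistribution by gamma counting of weighed organs, expressed as %ID/g.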

## COc1ccc(CCCC(=O)NCC(=O)NC(CCCCNC(=O)CN2CCN(CC(=O)[O-])CCN(CC(=O)[O-])CCN(CC(=O)[O-])CC2)C(=O)NCC(=O)NCC2CCC(C(=O)NC(Cc3c4ccccc4cc4ccccc34)C(=O)NCCCCC(NC(=O)NC(CCCC(=O)O)C(=O)O)C(=O)O)CC2)cc1.[68Ga+3] (stereo not drawn) [^68Ga-CCZ02009] ({Butanoyl(4-(4-MeO-phenyl))}-G[ξK](DOTA)G[X1][ξAla(9-anthryl)]-{ξLys(Nα-CO-ξAad)})
1 and 3 h p.i.
  Blood radioactivity: high and sustained blood radioactivity
1 h p.i.
  Biodistribution: Adrenal gland: 3.82 % ID/g
  Biodistribution: Blood: 19.52 % ID/g
  Biodistribution: Bone: 0.77 % ID/g
  Biodistribution: Brain: 0.30 % ID/g
  Biodistribution: Fat: 1.35 % ID/g
  Biodistribution: Heart: 4.02 % ID/g
  Biodistribution: Intestine: 1.72 % ID/g
  Biodistribution: LNCaP tumor: 7.11 % ID/g
  Biodistribution: Liver: 3.04 % ID/g
  Biodistribution: Lungs: 6.51 % ID/g
  Biodistribution: Muscle: 1.15 % ID/g
  Biodistribution: Pancreas: 1.56 % ID/g
  Biodistribution: Salivary gland: 2.74 % ID/g
  Biodistribution: Seminal gland: 0.88 % ID/g
  Biodistribution: Spleen: 1.56 % ID/g
  Biodistribution: Stomach: 0.71 % ID/g
  Biodistribution: Testes: 2.33 % ID/g
  Biodistribution: Thyroid: 2.92 % ID/g
  Biodistribution: Urine: 63.67 % ID/g
  Biodistribution: kidney: 7.57 % ID/g
3 h p.i.
  Biodistribution: Adrenal gland: 4.34 % ID/g
  Biodistribution: Blood: 19.18 % ID/g
  Biodistribution: Bone: 1.62 % ID/g
  Biodistribution: Brain: 0.32 % ID/g
  Biodistribution: Fat: 1.52 % ID/g
  Biodistribution: Heart: 3.76 % ID/g
  Biodistribution: Intestine: 1.53 % ID/g
  Biodistribution: LNCaP tumor: 17.69 % ID/g
  Biodistribution: Liver: 3.35 % ID/g
  Biodistribution: Lungs: 7.15 % ID/g
  Biodistribution: Muscle: 1.34 % ID/g
  Biodistribution: Pancreas: 1.41 % ID/g
  Biodistribution: Salivary gland: 3.82 % ID/g
  Biodistribution: Seminal gland: 1.73 % ID/g
  Biodistribution: Spleen: 2.17 % ID/g
  Biodistribution: Stomach: 0.73 % ID/g
  Biodistribution: Testes: 2.28 % ID/g
  Biodistribution: Thyroid: 3.59 % ID/g
  Biodistribution: Urine: 56.09 % ID/g
  Biodistribution: kidney: 9.28 % ID/g

## O=C([O-])CN1CCN(CC(=O)[O-])CCN(CC(=O)NCCCCC(NC(=O)CNC(=O)CCCc2ccc([N+](=O)[O-])cc2)C(=O)NCC(=O)NCC2CCC(C(=O)NC(Cc3c4ccccc4cc4ccccc34)C(=O)NCCCCC(NC(=O)NC(CCCC(=O)O)C(=O)O)C(=O)O)CC2)CCN(CC(=O)[O-])CC1.[177Lu+3] (stereo not drawn) [^177Lu-CCZ02017] ({Butanoyl(4-(4-NO2Ph))}-G[ξK](DOTA)G[X1][ξAla(9-anthryl)]-{ξLys(Nα-CO-ξAad)})
  LNCaP tumor uptake compared to 177Lu-HTK03170: substantially improved
3 h p.i.
  Biodistribution: Adrenal gland: 3.41 % ID/g
  Biodistribution: Blood: 14.17 % ID/g
  Biodistribution: Bone: 0.78 % ID/g
  Biodistribution: Brain: 0.24 % ID/g
  Biodistribution: Fat: 1.85 % ID/g
  Biodistribution: Heart: 3.24 % ID/g
  Biodistribution: Intestine: 1.03 % ID/g
  Biodistribution: LNCaP tumor: 39.27 % ID/g
  Biodistribution: Lacrimal gland: 0.20 % ID/g
  Biodistribution: Liver: 2.31 % ID/g
  Biodistribution: Lungs: 6.68 % ID/g
  Biodistribution: Muscle: 1.18 % ID/g
  Biodistribution: Pancreas: 2.27 % ID/g
  Biodistribution: Salivary gland: 2.43 % ID/g
  Biodistribution: Seminal gland: 0.93 % ID/g
  Biodistribution: Spleen: 2.25 % ID/g
  Biodistribution: Stomach: 1.55 % ID/g
  Biodistribution: Testes: 6.56 % ID/g
  Biodistribution: Thyroid: 2.87 % ID/g
  Biodistribution: Urine: 97.91 % ID/g
  Biodistribution: kidney: 17.31 % ID/g
24 h p.i.
  Biodistribution: Adrenal gland: 0.61 % ID/g
  Biodistribution: Blood: 0.61 % ID/g
  Biodistribution: Bone: 0.07 % ID/g
  Biodistribution: Brain: 0.03 % ID/g
  Biodistribution: Fat: 0.20 % ID/g
  Biodistribution: Heart: 0.24 % ID/g
  Biodistribution: Intestine: 0.13 % ID/g
  Biodistribution: LNCaP tumor: 89.90 % ID/g
  Biodistribution: Lacrimal gland: 0.04 % ID/g
  Biodistribution: Liver: 0.31 % ID/g
  Biodistribution: Lungs: 0.55 % ID/g
  Biodistribution: Muscle: 0.08 % ID/g
  Biodistribution: Pancreas: 0.11 % ID/g
  Biodistribution: Salivary gland: 0.35 % ID/g
  Biodistribution: Seminal gland: 0.07 % ID/g
  Biodistribution: Spleen: 0.35 % ID/g
  Biodistribution: Stomach: 0.15 % ID/g
  Biodistribution: Testes: 0.48 % ID/g
  Biodistribution: Thyroid: 0.40 % ID/g
  Biodistribution: Urine: 9.85 % ID/g
  Biodistribution: kidney: 5.58 % ID/g
72 h p.i.
  Biodistribution: Adrenal gland: 0.34 % ID/g
  Biodistribution: Blood: 0.07 % ID/g
  Biodistribution: Bone: 0.02 % ID/g
  Biodistribution: Brain: 0.01 % ID/g
  Biodistribution: Fat: 0.15 % ID/g
  Biodistribution: Heart: 0.10 % ID/g
  Biodistribution: Intestine: 0.04 % ID/g
  Biodistribution: LNCaP tumor: 70.84 % ID/g
  Biodistribution: Lacrimal gland: 0.01 % ID/g
  Biodistribution: Liver: 0.23 % ID/g
  Biodistribution: Lungs: 0.16 % ID/g
  Biodistribution: Muscle: 0.02 % ID/g
  Biodistribution: Pancreas: 0.04 % ID/g
  Biodistribution: Salivary gland: 0.14 % ID/g
  Biodistribution: Seminal gland: 0.03 % ID/g
  Biodistribution: Spleen: 0.38 % ID/g
  Biodistribution: Stomach: 0.04 % ID/g
  Biodistribution: Testes: 0.29 % ID/g
  Biodistribution: Thyroid: 0.16 % ID/g
  Biodistribution: Urine: 2.63 % ID/g
  Biodistribution: kidney: 3.21 % ID/g
144 h p.i.
  Biodistribution: Adrenal gland: 0.23 % ID/g
  Biodistribution: Blood: 0.01 % ID/g
  Biodistribution: Bone: 0.02 % ID/g
  Biodistribution: Brain: 0.01 % ID/g
  Biodistribution: Fat: 0.22 % ID/g
  Biodistribution: Heart: 0.04 % ID/g
  Biodistribution: Intestine: 0.01 % ID/g
  Biodistribution: LNCaP tumor: 116.43 % ID/g
  Biodistribution: Lacrimal gland: 0.00 % ID/g
  Biodistribution: Liver: 0.09 % ID/g
  Biodistribution: Lungs: 0.08 % ID/g
  Biodistribution: Muscle: 0.01 % ID/g
  Biodistribution: Pancreas: 0.01 % ID/g
  Biodistribution: Salivary gland: 0.05 % ID/g
  Biodistribution: Seminal gland: 0.01 % ID/g
  Biodistribution: Spleen: 0.37 % ID/g
  Biodistribution: Stomach: 0.02 % ID/g
  Biodistribution: Testes: 0.15 % ID/g
  Biodistribution: Thyroid: 0.11 % ID/g
  Biodistribution: Urine: 1.88 % ID/g
  Biodistribution: kidney: 1.98 % ID/g
240 h p.i.
  Biodistribution: Adrenal gland: 0.02 % ID/g
  Biodistribution: Blood: 0.00 % ID/g
  Biodistribution: Bone: 0.01 % ID/g
  Biodistribution: Brain: 0.00 % ID/g
  Biodistribution: Fat: 0.06 % ID/g
  Biodistribution: Heart: 0.01 % ID/g
  Biodistribution: Intestine: 0.01 % ID/g
  Biodistribution: LNCaP tumor: 95.45 % ID/g
  Biodistribution: Lacrimal gland: 0.00 % ID/g
  Biodistribution: Liver: 0.06 % ID/g
  Biodistribution: Lungs: 0.14 % ID/g
  Biodistribution: Muscle: 0.01 % ID/g
  Biodistribution: Pancreas: 0.00 % ID/g
  Biodistribution: Salivary gland: 0.01 % ID/g
  Biodistribution: Seminal gland: 0.00 % ID/g
  Biodistribution: Spleen: 0.50 % ID/g
  Biodistribution: Stomach: 0.01 % ID/g
  Biodistribution: Testes: 0.08 % ID/g
  Biodistribution: Thyroid: 0.03 % ID/g
  Biodistribution: Urine: 0.43 % ID/g
  Biodistribution: kidney: 0.46 % ID/g
